# According to the supplement of paper PMC13207355:
# Where a name gives a salt, the structure may show the parent alone.
# What was measured:
# Details in all cases: exposure time: 72 h
# E21 [1] = patient-derived glioblastoma stem cells of mesenchymal subtype; experiment: phenotypic distance (Euclidean, principal components) from DMSO controls (arbitrary units); higher = stronger morphological change
# E28 [2] = patient-derived glioblastoma stem cells of classical subtype; experiment: as above
# FT3469 [3] = normal neural stem cell line; experiment: as above
# E31 [4] = patient-derived glioblastoma stem cells of proneural subtype; experiment: as above
# E57 [5] = patient-derived glioblastoma stem cells of mesenchymal subtype; experiment: as above
# E13 [6] = patient-derived glioblastoma stem cells of classical subtype; experiment: as above
# E34 [7] = patient-derived glioblastoma stem cells of proneural subtype; experiment: as above
# E21 [8] = experiment: surviving fraction (nuclei count normalised to DMSO); higher = more cells surviving (less toxic)
# E28 [9] = experiment: as above
# FT3469 [10] = experiment: as above
# E31 [11] = experiment: as above
# E57 [12] = experiment: as above
# E13 [13] = experiment: as above
# E34 [14] = experiment: as above
# 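For phenotypic distance (Euclidean, principal components) from DMSO controls in this document: cell Painting imaging in 384-well plates, CellProfiler features reduced to at least 20 principal components, Euclidean distance versus same-plate DMSO vehicle wells (0.1% v/v), median over six images per well.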
# 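For surviving fraction (nuclei count normalised to DMSO) in this document: nuclei counted by high-content imaging of Hoechst-stained cells in laminin-coated 384-well plates, relative to 0.1% DMSO vehicle wells, with staurosporine as cell-death control.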
structure (smiles),measurement,setting,value
COC(=O)[C@@H]1[C@H]2C[C@H]3c4[nH]c5ccccc5c4CCN3C[C@@H]2CC[C@@H]1O [Yohimbine hydrochloride],phenotypic distance,E21 [1]; 4.11523 nM,0.527
same,phenotypic distance,E21 [1]; 12.34567901 nM,0.576
same,phenotypic distance,E21 [1]; 37.037 nM,0.624
same,phenotypic distance,E21 [1]; 111.1111111 nM,0.545
same,phenotypic distance,E21 [1]; 333.333 nM,0.676
same,phenotypic distance,E21 [1]; 1000 nM,0.456
same,phenotypic distance,E21 [1]; 3000 nM,0.417
same,phenotypic distance,E28 [2]; 4.11523 nM,0.456
same,phenotypic distance,E28 [2]; 12.34567901 nM,0.689
same,phenotypic distance,E28 [2]; 37.037 nM,1.18
same,phenotypic distance,E28 [2]; 111.1111111 nM,0.639
same,phenotypic distance,E28 [2]; 333.333 nM,0.696
same,phenotypic distance,E28 [2]; 1000 nM,0.645
same,phenotypic distance,E28 [2]; 3000 nM,0.333
same,phenotypic distance,FT3469 [3]; 4.11523 nM,0.568
same,phenotypic distance,FT3469 [3]; 12.34567901 nM,0.613
same,phenotypic distance,FT3469 [3]; 37.037 nM,0.433
same,phenotypic distance,FT3469 [3]; 111.1111111 nM,1.24
same,phenotypic distance,FT3469 [3]; 333.333 nM,0.516
same,phenotypic distance,FT3469 [3]; 1000 nM,0.514
same,phenotypic distance,FT3469 [3]; 3000 nM,0.55
same,phenotypic distance,E31 [4]; 4.11523 nM,0.598
same,phenotypic distance,E31 [4]; 12.34567901 nM,0.58
same,phenotypic distance,E31 [4]; 37.037 nM,0.688
same,phenotypic distance,E31 [4]; 111.1111111 nM,0.658
same,phenotypic distance,E31 [4]; 333.333 nM,0.454
same,phenotypic distance,E31 [4]; 1000 nM,0.521
same,phenotypic distance,E31 [4]; 3000 nM,0.828
same,phenotypic distance,E57 [5]; 4.11523 nM,0.343
same,phenotypic distance,E57 [5]; 12.34567901 nM,0.457
same,phenotypic distance,E57 [5]; 37.037 nM,0.558
same,phenotypic distance,E57 [5]; 111.1111111 nM,0.582
same,phenotypic distance,E57 [5]; 333.333 nM,0.386
same,phenotypic distance,E57 [5]; 1000 nM,0.804
same,phenotypic distance,E57 [5]; 3000 nM,0.576
same,phenotypic distance,E13 [6]; 4.11523 nM,0.924
same,phenotypic distance,E13 [6]; 12.34567901 nM,0.56
same,phenotypic distance,E13 [6]; 37.037 nM,0.624
same,phenotypic distance,E13 [6]; 111.1111111 nM,0.517
same,phenotypic distance,E13 [6]; 333.333 nM,0.539
same,phenotypic distance,E13 [6]; 1000 nM,0.622
same,phenotypic distance,E13 [6]; 3000 nM,0.73
same,phenotypic distance,E34 [7]; 4.11523 nM,0.815
same,phenotypic distance,E34 [7]; 12.34567901 nM,0.668
same,phenotypic distance,E34 [7]; 37.037 nM,0.596
same,phenotypic distance,E34 [7]; 111.1111111 nM,0.623
same,phenotypic distance,E34 [7]; 333.333 nM,0.866
same,phenotypic distance,E34 [7]; 1000 nM,0.744
same,phenotypic distance,E34 [7]; 3000 nM,0.647
same,surviving fraction,E21 [8]; 4.11523 nM,0.896
same,surviving fraction,E21 [8]; 12.34567901 nM,1.01
same,surviving fraction,E21 [8]; 37.037 nM,0.994
same,surviving fraction,E21 [8]; 111.1111111 nM,1.06
same,surviving fraction,E21 [8]; 333.333 nM,1.03
same,surviving fraction,E21 [8]; 1000 nM,1.01
same,surviving fraction,E21 [8]; 3000 nM,1.02
same,surviving fraction,E28 [9]; 4.11523 nM,1.01
same,surviving fraction,E28 [9]; 12.34567901 nM,0.965
same,surviving fraction,E28 [9]; 37.037 nM,1.04
same,surviving fraction,E28 [9]; 111.1111111 nM,0.945
same,surviving fraction,E28 [9]; 333.333 nM,1.15
same,surviving fraction,E28 [9]; 1000 nM,0.948
same,surviving fraction,E28 [9]; 3000 nM,0.948
same,surviving fraction,FT3469 [10]; 4.11523 nM,0.957
same,surviving fraction,FT3469 [10]; 12.34567901 nM,1.05
same,surviving fraction,FT3469 [10]; 37.037 nM,0.936
same,surviving fraction,FT3469 [10]; 111.1111111 nM,0.853
same,surviving fraction,FT3469 [10]; 333.333 nM,1.04
same,surviving fraction,FT3469 [10]; 1000 nM,0.975
same,surviving fraction,FT3469 [10]; 3000 nM,1.01
same,surviving fraction,E31 [11]; 4.11523 nM,0.959
same,surviving fraction,E31 [11]; 12.34567901 nM,0.999
same,surviving fraction,E31 [11]; 37.037 nM,1.18
same,surviving fraction,E31 [11]; 111.1111111 nM,0.859
same,surviving fraction,E31 [11]; 333.333 nM,0.951
same,surviving fraction,E31 [11]; 1000 nM,1.07
same,surviving fraction,E31 [11]; 3000 nM,0.928
same,surviving fraction,E57 [12]; 4.11523 nM,1.03
same,surviving fraction,E57 [12]; 12.34567901 nM,1.07
same,surviving fraction,E57 [12]; 37.037 nM,0.994
same,surviving fraction,E57 [12]; 111.1111111 nM,0.981
same,surviving fraction,E57 [12]; 333.333 nM,0.979
same,surviving fraction,E57 [12]; 1000 nM,0.979
same,surviving fraction,E57 [12]; 3000 nM,1.01
same,surviving fraction,E13 [13]; 4.11523 nM,0.88
same,surviving fraction,E13 [13]; 12.34567901 nM,0.94
same,surviving fraction,E13 [13]; 37.037 nM,1.03
same,surviving fraction,E13 [13]; 111.1111111 nM,0.984
same,surviving fraction,E13 [13]; 333.333 nM,1.01
same,surviving fraction,E13 [13]; 1000 nM,0.876
same,surviving fraction,E13 [13]; 3000 nM,0.986
same,surviving fraction,E34 [14]; 4.11523 nM,0.932
same,surviving fraction,E34 [14]; 12.34567901 nM,0.932
same,surviving fraction,E34 [14]; 37.037 nM,0.912
same,surviving fraction,E34 [14]; 111.1111111 nM,1.05
same,surviving fraction,E34 [14]; 333.333 nM,0.932
same,surviving fraction,E34 [14]; 1000 nM,0.959
same,surviving fraction,E34 [14]; 3000 nM,0.892
